Assay results reported in patent publication US20040097408A1, “Compounds regulating cell proliferation and differentiation” (priority 2001, published 2004).

Experiments:
[1] = level of F16 in serum of mice by fluorescence; assay type: in vivo, mouse; conditions: 12.5 or 25 mg/kg intraperitoneally
Method: To determine the levels of F16 present in the blood of mice after injection of F16, two mice were injected intraperitoneally with 25 mg/kg F16 and two mice were injected intraperitoneally with 12.5 mg/kg of F16. […] 40-50 μL of blood was obtained from the tail vein of the mice and placed into tubes incubated in ice and containing Heparin to a final concentration of 20U/mL of blood. Samples were centrifuged at 6,000 rpm for 3 minutes in the cold room. Serum was transfered to a clean tube and stored at −70° C. until further processing. 2 μL of serum samples were spotted onto Whatman paper, alongside with dilutions of F16 as a standard. Since F16 is a fluorescent compound (see below), the presence of F16 was deteremined by measuring its fluorescence emission using the Storm 860 (Molecular Dynamics). The concentration of F16 in serum samples was estimated by visual comparison to the intensity of the standard.

[2] = tested on: Neu, PKB/Akt and MAP kinase in EpH4-A6 cells; assay: Western blot of Neu-dependent signaling; assay type: cell-based, mouse; conditions: 3 μM F16, FIG. 12
Method: In parallel to the characterization of the effect of F16 on mitochondria homeostasis the effect of F16 on cell signaling was investigated. Control and Neu-overexpressing EpH4-A6 cells were left untreated or treated with 3 μM F16 for 24 and 48 hr. Whole cell lysates were prepared as described above. Samples were immnoblotted with antibodies against Neu, PKB, MAPK, as well as antibodies that react with the phosphorylated forms of the proteins, as described above. Samples were probed with anti-β-actin as loading control, also as described above.

EpH4-A6 cells = assay: ATP levels (ATP Bioluminescence Assay); assay type: cell-based, mouse; conditions: 3 μM F16, 24 hr, FIG. 10
Method: One of the major roles of mitochondria is to supply energy to the cell. To assess alterations in mitochondrial function, ATP levels were determined in F16-treated cells by the luciferase-catalyzed ATP-dependent bioluminescent oxidation of luciferin using the ATP Bioluminescence Assay Kit (Roche). EpH4-EV and EpH4-A6 cells were grown in the absence or in the presence of 3 μM F16 for 15 hr and 24 hr. As a control A6 were treated with 5 μM FCCP (Sigma). Cells were then harvested, counted and equivalent numbers used for each determination, according to manufacturer's procedure. Each determination was done in triplicate, and the entire experiment was performed twice.

control cells = assay: electron-microscopy analysis of mitochondria; assay type: cell-based, mouse; conditions: 3 μM F16
Method: (§1) Electron-microscopy analysis was performed on untreated or F16-treated A6 cells, control cells and tumor cell lines SH1.1 and SMF to search for potential mitochondria lesions due to F16 accumulation. Cells grown in 35 mm dishes were left untreated or treated with 3 μM F16 for the indicated times, and fixed for 1 hr at room temperature in 0.1 M Cacodylate buffer containing 1.25% formaldehyde, 2.5% glutaraldehyde and 0.3% picric acid. Samples were then treated with 1% osmiuntetroxide/1.5% potassiumferrocyanide, followed by 1% uranyl acetate, dehydrated and epon-araldite embedded. Ultrathin sections were examined using a JEOL 1200EX microscope.

A6 cells = assay: electron-microscopy analysis of mitochondria; assay type: cell-based, mouse; conditions: 3 μM F16, abnormalities evident as early as 15 hr
Method: as §1

SH1.1 = assay: cell count proliferation assay; assay type: cell-based, mouse; parameters: key: +: A positive scoring in these Tables represent cells in which a 2-5 and a 10-40 fold reduction in the total number of cells relative to the control untreated cells was observed after 3 and 7 days of culture with F16, respectively; conditions: SH1.1, Ras, breast; F16 3 μM, cells counted after 3 and 7 days
Text: (§2) The following panel of mouse tumor cell lines derived from Neu, Ras and Myc transgenic mice and panel of human cancer cell lines were used: a) Neu-initiated mouse tumor cell lines NF980, NF324-2A, NF324-1B, SMF, NAF, Neu4145, n-Neu, Ras-initiated mouse tumor cell lines SH1,1, AC236, AC711, AC816, ACp53^−#1, ACp53^−4782, AC222, AC99, AC260, ACp53^−#19, ACp53^−#16, AC/Balb6.6, AC/Balb14, AC/Balb12 and Myc-initiated mouse tumor cell lines 16MB9a, 13MA1a; and b) human breast tumor cell lines MDA-MB231, MDA-MB435, MDA-MB436, MDA-MB453, MDA-MB-468, SKBR-3, MCF-7, T47D, ZR75; human prostate cancer cell lines LNCaP, PC-3, DU145 and the human ovarian cancer cell line SKOV-3.
(§3) For each cell line, 10^5 cells were seeded in 4×6 well plates. Next day, F16 was added at 3 μM to the medium of 2 of the plates, while the other two were left untreated (control). Cells were counted 3 days and 7 days after initiation of treatment.
(§4) A positive scoring in these Tables represent cells in which a 2-5 and a 10-40 fold reduction in the total number of cells relative to the control untreated cells was observed after 3 and 7 days of culture with F16, respectively.

NF980 = assay: cell count proliferation assay; assay type: cell-based, mouse; parameters: key: +: A positive scoring in these Tables represent cells in which a 2-5 and a 10-40 fold reduction in the total number of cells relative to the control untreated cells was observed after 3 and 7 days of culture with F16, respectively; conditions: NF980, Neu, breast; F16 3 μM, cells counted after 3 and 7 days
Text: as §2, §3, §4

AC711 = assay: cell count proliferation assay; assay type: cell-based, mouse; parameters: key: +: A positive scoring in these Tables represent cells in which a 2-5 and a 10-40 fold reduction in the total number of cells relative to the control untreated cells was observed after 3 and 7 days of culture with F16, respectively; conditions: AC711, Ras, breast; F16 3 μM, cells counted after 3 and 7 days
Text: as §2, §3, §4

NAF = assay: cell count proliferation assay; assay type: cell-based, mouse; parameters: key: +: A positive scoring in these Tables represent cells in which a 2-5 and a 10-40 fold reduction in the total number of cells relative to the control untreated cells was observed after 3 and 7 days of culture with F16, respectively; conditions: Neu, breast, F16 3 μM, cells counted after 3 and 7 days
Text: as §2, §3, §4

n-Neu = assay: cell count proliferation assay; assay type: cell-based, mouse; parameters: key: +: A positive scoring in these Tables represent cells in which a 2-5 and a 10-40 fold reduction in the total number of cells relative to the control untreated cells was observed after 3 and 7 days of culture with F16, respectively; conditions: breast, F16 3 μM, cells counted after 3 and 7 days
Text: as §2, §3, §4

C[n+]1ccc(/C=C/c2c[nH]c3ccccc23)cc1.[I-] [F16]
F16 in blood 20 hours after the injection [1]: not detected | time of the maximum level of F16 in the blood ([1]; FIG. 7): 1 to 3 h | level of F16 in the blood at 7 hours after the injection ([1]; compared to standard): nanomolar range | maximum level of F16 in the blood ([1]; compared to standard): micromolar range | phosphotyrosine content of Neu, phosphorylated PKB/Akt, and phosphorylated MAP kinase [2]: decreased | ATP pool (EpH4-A6 cells): significant depletion in the ATP pool | mitochondrial ultrastructure (control cells): no abnormalities in mitochondria morphology | mitochondrial ultrastructure (A6 cells): progressive swelling and disruption of mitochondrial integrity | F16 response (SH1.1): + | F16 response (NF980): + | F16 response (AC711): + | F16 response (NAF): + | F16 response (n-Neu): +
